{"source": "ChEMBL document CHEMBL3272324", "about": "“Studies on antitumor agents, 2. Syntheses and antitumor activities of 1-(tetrahydro-2-furanyl)-5-fluorouracil and 1,3-bis(tetrahydro-2-furanyl)-5-fluorouracil” (J Med Chem, 1978)", "key": {"[1]": {"test": "Toxicity in po dosed ddY mouse after 3 days by up and down method", "format": "organism-based", "settings": "in vivo"}, "[2]": {"test": "Toxicity in po dosed ddY mouse after 3 weeks by up and down method", "format": "organism-based", "settings": "in vivo"}, "[3]": {"test": "Antitumor activity against mouse Ehrlich carcinoma cells allografted in ddY mouse assessed as tumor inhibition at 0.15 mmol/kg, po qd for 7 days measured on day 10 relative to control", "format": "functional", "settings": "read-out: TGI"}, "[4]": {"test": "Antitumor activity against mouse Ehrlich carcinoma cells allografted in ddY mouse assessed as tumor inhibition at 0.45 mmol/kg, po qd for 7 days measured on day 10 relative to control", "format": "functional", "settings": "read-out: TGI"}, "Sarcoma-180 [5]": {"test_system": "Sarcoma-180", "test": "Antitumor activity against mouse Sarcoma 180 cells allografted in ICR mouse assessed as tumor inhibition at 0.15 mmol/kg, po qd for 7 days measured on day 10 relative to control", "format": "functional", "settings": "Sarcoma-180, po, read-out: TGI"}, "Sarcoma-180 [6]": {"test_system": "Sarcoma-180", "test": "Antitumor activity against mouse Sarcoma 180 cells allografted in ICR mouse assessed as tumor inhibition at 0.45 mmol/kg, po qd for 7 days measured on day 10 relative to control", "format": "functional", "settings": "Sarcoma-180, po, read-out: TGI"}, "YOSHIDA [7]": {"test_system": "YOSHIDA", "test": "Antitumor activity against rat Yoshida cells allografted in Donryu rat assessed as tumor inhibition at 0.15 mmol/kg, po qd for 7 days measured on day 10 relative to control", "format": "functional", "settings": "read-out: TGI"}, "YOSHIDA [8]": {"test_system": "YOSHIDA", "test": "Antitumor activity against rat Yoshida cells allografted in Donryu rat assessed as tumor inhibition at 0.45 mmol/kg, po qd for 7 days measured on day 10 relative to control", "format": "functional", "settings": "read-out: TGI"}, "[9]": {"test": "Antitumor activity against rat AH-130 cells allografted in Donryu rat assessed as tumor inhibition at 0.15 mmol/kg, po qd for 7 days measured on day 10 relative to control", "format": "functional", "settings": "read-out: TGI"}, "[10]": {"test": "Antitumor activity against rat AH-130 cells allografted in Donryu rat assessed as tumor inhibition at 0.45 mmol/kg, po qd for 7 days measured on day 10 relative to control", "format": "functional", "settings": "read-out: TGI"}, "W256 [11]": {"test_system": "W256", "test": "Antitumor activity against rat Walker 256 cells allografted in Wistar rat assessed as tumor inhibition at 0.15 mmol/kg, po qd for 7 days measured on day 10 relative to control", "format": "functional", "settings": "read-out: TGI"}, "W256 [12]": {"test_system": "W256", "test": "Antitumor activity against rat Walker 256 cells allografted in Wistar rat assessed as tumor inhibition at 0.45 mmol/kg, po qd for 7 days measured on day 10 relative to control", "format": "functional", "settings": "read-out: TGI"}, "Rattus norvegicus [13]": {"test_system": "Rattus norvegicus", "test": "Toxicity in Donryu rat allografted with rat AH-130 cells assessed as body weight change at 0.15 mmol/kg, po administered for 7 days measured on day 10 relative to control", "format": "organism-based", "settings": "in vivo, 168 h"}, "Rattus norvegicus [14]": {"test_system": "Rattus norvegicus", "test": "Toxicity in Donryu rat allografted with rat AH-130 cells assessed as body weight change at 0.45 mmol/kg, po administered for 7 days measured on day 10 relative to control", "format": "organism-based", "settings": "in vivo, 168 h"}, "[15]": {"test": "Antitumor activity against mouse Ehrlich carcinoma cells allografted in ddY mouse assessed as tumor inhibition at 0.08 mmol/kg, po qd for 7 days measured on day 10 relative to control", "format": "functional", "settings": "read-out: TGI"}, "Sarcoma-180 [16]": {"test_system": "Sarcoma-180", "test": "Antitumor activity against mouse Sarcoma 180 cells allografted in ICR mouse assessed as tumor inhibition at 0.08 mmol/kg, po qd for 7 days measured on day 10 relative to control", "format": "functional", "settings": "Sarcoma-180, po, read-out: TGI"}, "YOSHIDA [17]": {"test_system": "YOSHIDA", "test": "Antitumor activity against rat Yoshida cells allografted in Donryu rat assessed as tumor inhibition at 0.08 mmol/kg, po qd for 7 days measured on day 10 relative to control", "format": "functional", "settings": "read-out: TGI"}, "[18]": {"test": "Antitumor activity against rat AH-130 cells allografted in Donryu rat assessed as tumor inhibition at 0.08 mmol/kg, po qd for 7 days measured on day 10 relative to control", "format": "functional", "settings": "read-out: TGI"}, "W256 [19]": {"test_system": "W256", "test": "Antitumor activity against rat Walker 256 cells allografted in Wistar rat assessed as tumor inhibition at 0.08 mmol/kg, po qd for 7 days measured on day 10 relative to control", "format": "functional", "settings": "read-out: TGI"}, "Rattus norvegicus [20]": {"test_system": "Rattus norvegicus", "test": "Toxicity in Donryu rat allografted with rat AH-130 cells assessed as body weight change at 0.08 mmol/kg, po administered for 7 days measured on day 10 relative to control", "format": "organism-based", "settings": "in vivo, 168 h"}}, "data": [{"smiles": "O=c1c(F)cn(C2CCCO2)c(=O)n1C1CCCO1", "note": "(stereo not drawn)", "values": [{"measurement": "LD50 at 72 h", "setting": "[1]", "result": 2900, "unit": "mg/kg"}, {"measurement": "LD50 at 504 h", "setting": "[2]", "result": 2660, "unit": "mg/kg"}, {"measurement": "inhibition in vivo at 150 µmol/kg", "setting": "[3]", "result": 50, "unit": "%"}, {"measurement": "inhibition in vivo at 450 µmol/kg", "setting": "[4]", "result": 61, "unit": "%"}, {"measurement": "inhibition in vivo at 150 µmol/kg", "setting": "Sarcoma-180 [5]", "result": 45, "unit": "%"}, {"measurement": "inhibition in vivo at 450 µmol/kg", "setting": "Sarcoma-180 [6]", "result": 56, "unit": "%"}, {"measurement": "inhibition in vivo at 150 µmol/kg", "setting": "YOSHIDA [7]", "result": 43, "unit": "%"}, {"measurement": "inhibition in vivo at 450 µmol/kg", "setting": "YOSHIDA [8]", "result": 58, "unit": "%"}, {"measurement": "inhibition in vivo at 150 µmol/kg", "setting": "[9]", "result": 32, "unit": "%"}, {"measurement": "inhibition in vivo at 450 µmol/kg", "setting": "[10]", "result": 44, "unit": "%"}, {"measurement": "inhibition in vivo at 150 µmol/kg", "setting": "W256 [11]", "result": 27, "unit": "%"}, {"measurement": "inhibition in vivo at 450 µmol/kg", "setting": "W256 [12]", "result": 37, "unit": "%"}]}, {"smiles": "O=c1[nH]cc(F)c(=O)n1C1CCCO1", "note": "(stereo not drawn)", "values": [{"measurement": "inhibition in vivo at 150 µmol/kg", "setting": "[9]", "result": 45, "unit": "%"}, {"measurement": "inhibition in vivo at 450 µmol/kg", "setting": "[10]", "result": 80, "unit": "%"}, {"measurement": "Activity", "setting": "Rattus norvegicus [13]", "result": 47.3, "unit": "g"}, {"measurement": "Activity", "setting": "Rattus norvegicus [14]", "result": 21.7, "unit": "g"}]}, {"smiles": "O=c1[nH]cc(F)c(=O)[nH]1", "note": "[FLUOROURACIL]", "values": [{"measurement": "inhibition in vivo at 80 µmol/kg", "setting": "[15]", "result": 42, "unit": "%"}, {"measurement": "inhibition in vivo at 80 µmol/kg", "setting": "Sarcoma-180 [16]", "result": 48, "unit": "%"}, {"measurement": "inhibition in vivo at 80 µmol/kg", "setting": "YOSHIDA [17]", "result": 41, "unit": "%"}, {"measurement": "inhibition in vivo at 80 µmol/kg", "setting": "[18]", "result": 33, "unit": "%"}, {"measurement": "inhibition in vivo at 80 µmol/kg", "setting": "W256 [19]", "result": 24, "unit": "%"}, {"measurement": "Activity", "setting": "Rattus norvegicus [20]", "result": 42.1, "unit": "g"}]}, {"smiles": "O=c1[nH]c(=O)n(C2CCCO2)cc1F", "note": "(stereo not drawn) [TEGAFUR]", "values": [{"measurement": "inhibition in vivo at 150 µmol/kg", "setting": "[3]", "result": 38, "unit": "%"}, {"measurement": "inhibition in vivo at 450 µmol/kg", "setting": "[4]", "result": 54, "unit": "%"}, {"measurement": "inhibition in vivo at 150 µmol/kg", "setting": "Sarcoma-180 [5]", "result": 38, "unit": "%"}, {"measurement": "inhibition in vivo at 450 µmol/kg", "setting": "Sarcoma-180 [6]", "result": 37, "unit": "%"}, {"measurement": "inhibition in vivo at 150 µmol/kg", "setting": "YOSHIDA [7]", "result": 32, "unit": "%"}, {"measurement": "inhibition in vivo at 450 µmol/kg", "setting": "YOSHIDA [8]", "result": 52, "unit": "%"}, {"measurement": "inhibition in vivo at 150 µmol/kg", "setting": "[9]", "result": 22, "unit": "%"}, {"measurement": "inhibition in vivo at 450 µmol/kg", "setting": "[10]", "result": 35, "unit": "%"}, {"measurement": "inhibition in vivo at 150 µmol/kg", "setting": "W256 [11]", "result": 27, "unit": "%"}, {"measurement": "inhibition in vivo at 450 µmol/kg", "setting": "W256 [12]", "result": 31, "unit": "%"}, {"measurement": "Activity", "setting": "Rattus norvegicus [14]", "result": 40.9, "unit": "g"}]}]}
